Measured values published in PubChem BioAssay AID248 (DTP/NCI, 2004).
Where “and” joins values, the source holds several entries; their conditions need not be identical. Identical values can stand only once. Inconclusive results and toxic doses are left out. Cut-off read from the data, not from the text of the source: active = T/C of 150% or more; inactive = T/C below 125%.

System: L1210 leukemia ip in BDF1 mice, survival T/C
Experiment: NCI In Vivo Anticancer Drug Screen. Data for tumor model L1210 Leukemia (intraperitoneal) in B6D2F1 (BDF1) mice
Settings: endpoint: mean survival time, higher = longer survival
In short: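 Transplantable tumor model; survival measured in treated vs vehicle control mice. Value = treated/control.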

Measured: T/C

O=S(=O)(CC(Cl)c1ccccc1)c1ccccc1 (configuration not stated)
inactive: dose: 100.0 mg/kg/injection, schedule: Q01DX001 (ip), vehicle: acetone 95 % of control | dose: 100.0 mg/kg/injection, schedule: Q01DX009 (ip), vehicle: saline 91 % of control | dose: 200.0 mg/kg/injection, schedule: Q01DX001 (ip), vehicle: acetone 98 % of control | dose: 200.0 mg/kg/injection, schedule: Q01DX009 (ip), vehicle: saline 94 % of control | dose: 400.0 mg/kg/injection, schedule: Q01DX001 (ip), vehicle: acetone 92 % of control | dose: 400.0 mg/kg/injection, schedule: Q01DX009 (ip), vehicle: saline 89 % of control

CCN(CC)CCCC(C)Nc1ccnc2c1ccc1ccccc12 (configuration not stated)
inactive: dose: 50.0 mg/kg/injection, schedule: Q01DX001 (ip), vehicle: saline 98 % of control | dose: 100.0 mg/kg/injection, schedule: Q01DX001 (ip), vehicle: saline 101 % of control | dose: 200.0 mg/kg/injection, schedule: Q01DX001 (ip), vehicle: saline 106 % of control | dose: 400.0 mg/kg/injection, schedule: Q01DX001 (ip), vehicle: saline 112 % of control

O=C(C1=CCCCC1)c1ccccc1
inactive: dose: 75.0 mg/kg/injection, schedule: Q04DX002 (ip), vehicle: saline with Tween-80 108 % of control | dose: 150.0 mg/kg/injection, schedule: Q04DX002 (ip), vehicle: saline with Tween-80 97 % of control | dose: 300.0 mg/kg/injection, schedule: Q04DX002 (ip), vehicle: saline with Tween-80 114 % of control

CC(C)CC(C)c1c(N)nc(N)[nH]c1=O (configuration not stated)
inactive: dose: 100.0 mg/kg/injection, schedule: Q01DX001 (ip), vehicle: Klucel (hydroxypropylcellulose) (HPC) 97 % of control | dose: 200.0 mg/kg/injection, schedule: Q01DX001 (ip), vehicle: Klucel (hydroxypropylcellulose) (HPC) 103 % of control | dose: 400.0 mg/kg/injection, schedule: Q01DX001 (ip), vehicle: Klucel (hydroxypropylcellulose) (HPC) 109 % of control

O=c1[nH]ncc(Cl)c1Cl
inactive: dose: 12.5 mg/kg/injection, schedule: Q01DX009 (ip), vehicle: saline with Tween-80 92 % of control | dose: 25.0 mg/kg/injection, schedule: Q01DX009 (ip), vehicle: saline with Tween-80 95 % of control | dose: 50.0 mg/kg/injection, schedule: Q01DX009 (ip), vehicle: saline with Tween-80 106 % of control | dose: 100.0 mg/kg/injection, schedule: Q01DX009 (ip), vehicle: saline with Tween-80 87 % of control | dose: 200.0 mg/kg/injection, schedule: Q01DX009 (ip), vehicle: saline with Tween-80 87 % of control

COc1ccc(COC(=O)Nc2ccccc2C(F)(F)F)cc1
inactive: dose: 100.0 mg/kg/injection, schedule: Q01DX009 (ip), vehicle: gum acacia 89 % of control | dose: 200.0 mg/kg/injection, schedule: Q01DX009 (ip), vehicle: gum acacia 89 % of control

CCC(CC)OCCN1CCN(CCCN2c3ccccc3Sc3ccc(C(F)(F)F)cc32)CC1
inactive: dose: 0.39 mg/kg/injection, schedule: Q01DX009 (ip), vehicle: saline with Tween-80 107 % of control | dose: 0.78 mg/kg/injection, schedule: Q01DX009 (ip), vehicle: saline with Tween-80 107 % of control | dose: 1.56 mg/kg/injection, schedule: Q01DX009 (ip), vehicle: saline with Tween-80 95 % of control | dose: 1.56 mg/kg/injection, schedule: Q04DX003 (ip), vehicle: saline with Tween-80 97 % of control | dose: 3.12 mg/kg/injection, schedule: Q04DX003 (ip), vehicle: saline with Tween-80 96 % of control | dose: 6.25 mg/kg/injection, schedule: Q04DX003 (ip), vehicle: saline with Tween-80 112 % of control | dose: 12.5 mg/kg/injection, schedule: Q04DX003 (ip), vehicle: saline with Tween-80 97 % of control

CCCCCCCNC
inactive: dose: 50.0 mg/kg/injection, schedule: Q01DX001 (ip), vehicle: carboxymethylcellulose (CMC) 99 % of control | dose: 100.0 mg/kg/injection, schedule: Q01DX001 (ip), vehicle: carboxymethylcellulose (CMC) 99 % of control | dose: 200.0 mg/kg/injection, schedule: Q01DX001 (ip), vehicle: carboxymethylcellulose (CMC) 96 % of control

CCCCSC1=NCCCS1
inactive: dose: 75.0 mg/kg/injection, schedule: Q01DX001 (ip), vehicle: other 104 % of control | dose: 150.0 mg/kg/injection, schedule: Q01DX001 (ip), vehicle: other 111 % of control | dose: 300.0 mg/kg/injection, schedule: Q01DX001 (ip), vehicle: other 102 % of control

CC[N+](CC)(CC)CCCC[P+](CC)(CC)CC
inactive: dose: 12.0 mg/kg/injection, schedule: Q04DX003 (ip), vehicle: other 95 % of control | dose: 25.0 mg/kg/injection, schedule: Q04DX003 (ip), vehicle: other 90 % of control | dose: 50.0 mg/kg/injection, schedule: Q04DX003 (ip), vehicle: other 93 % of control

O=C(O)COc1cc(Cl)ccn1
inactive: dose: 100.0 mg/kg/injection, schedule: Q04DX002 (ip), vehicle: Klucel (hydroxypropylcellulose) (HPC) 100 % of control | dose: 200.0 mg/kg/injection, schedule: Q04DX002 (ip), vehicle: Klucel (hydroxypropylcellulose) (HPC) 93 % of control | dose: 400.0 mg/kg/injection, schedule: Q04DX002 (ip), vehicle: Klucel (hydroxypropylcellulose) (HPC) 110 % of control

CCCNc1nc(N)[nH]c(=O)c1NC=O
inactive: dose: 55.0 mg/kg/injection, schedule: Q01DX Z (ip), vehicle: methylcellulose (MC) 105 % of control | dose: 83.0 mg/kg/injection, schedule: Q01DX Z (ip), vehicle: methylcellulose (MC) 109 % of control | dose: 125.0 mg/kg/injection, schedule: Q01DX Z (ip), vehicle: methylcellulose (MC) 109 % of control | dose: 180.0 mg/kg/injection, schedule: Q01DX Z (ip), vehicle: methylcellulose (MC) 97 % of control

CC(C)C(=O)Nc1ccc(Cl)c(Cl)c1
inactive: dose: 222.0 mg/kg/injection, schedule: Q01DX Z (ip), vehicle: methylcellulose (MC) 111 % of control | dose: 333.0 mg/kg/injection, schedule: Q01DX Z (ip), vehicle: methylcellulose (MC) 98 % of control | dose: 500.0 mg/kg/injection, schedule: Q01DX Z (ip), vehicle: methylcellulose (MC) 102 % of control

Cc1ccc(Cl)cc1NC(=O)Nc1ccccc1
inactive: dose: 0.75 mg/kg/injection, schedule: Q01DX009 (ip), vehicle: Klucel (hydroxypropylcellulose) (HPC) 92 % of control | dose: 1.5 mg/kg/injection, schedule: Q01DX009 (ip), vehicle: Klucel (hydroxypropylcellulose) (HPC) 90 % of control | dose: 3.0 mg/kg/injection, schedule: Q01DX009 (ip), vehicle: Klucel (hydroxypropylcellulose) (HPC) 94 % of control and 90 % of control | dose: 100.0 mg/kg/injection, schedule: Q04DX003 (ip), vehicle: Klucel (hydroxypropylcellulose) (HPC) 90 % of control | dose: 200.0 mg/kg/injection, schedule: Q04DX003 (ip), vehicle: Klucel (hydroxypropylcellulose) (HPC) 90 % of control | dose: 400.0 mg/kg/injection, schedule: Q04DX003 (ip), vehicle: Klucel (hydroxypropylcellulose) (HPC) 87 % of control

CNC(=S)N/N=C/CSC/C=N/NC(=S)NC
inactive: dose: 0.2 mg/kg/injection, schedule: Q03HX024 (ip), vehicle: saline with Tween-80 100 % of control | dose: 0.39 mg/kg/injection, schedule: Q03HX024 (ip), vehicle: saline with Tween-80 97 % of control | dose: 0.78 mg/kg/injection, schedule: Q03HX024 (ip), vehicle: saline with Tween-80 93 % of control | dose: 1.56 mg/kg/injection, schedule: Q03HX024 (ip), vehicle: saline with Tween-80 108 % of control | dose: 3.13 mg/kg/injection, schedule: Q03HX024 (ip), vehicle: saline with Tween-80 100 % of control

Cc1cc2c(=O)[nH]c(N)nc2nc1C
inactive: dose: 100.0 mg/kg/injection, schedule: Q01DX Z (ip), vehicle: methylcellulose (MC) 95 % of control | dose: 200.0 mg/kg/injection, schedule: Q01DX Z (ip), vehicle: methylcellulose (MC) 94 % of control
